Experimental data as given in patent publication US6123964A, “Wet granulation formulation of a growth hormone secretagogue” (priority 1998, dated 2000).
Where a name gives a salt, the structure may show the parent alone. Values belong to the molecule of their own block, whether it stands above or below them.

What was measured:
[1] = Hygroscopicity of wet crystals; type: physicochemical; conditions: wet crystals during filtration
Method: The volume of the solution of 15 from the previous step was adjusted to 60 L with ethyl acetate and EtOH (4.8 L) was added. The MsOH (316 mL) was added in 3 L of EtOAc at 45° C. To the deep red homogeneous solution was added 496 g of the title compound Form I seed (10% seed based on the weight of the free amine was employed). The temperature rose to ca. 48° C. and the reaction was aged at 52° C. for 1.5 hours. Analysis indicated complete conversion to the title compound (Form I). (At less than 10% seed longer age (>3 hours) was required). The slurry was allowed to cool to 20° C. overnight and was filtered in a centrifuge under N2. The cake was washed with 20 L of 8% EtOH in EtOAc. […] The batch was dried at 35° C. under vacuum to afford 2.7Kg (56% overall yield) of the title compound (Form I) (99.9 A % purity; <0.1% enantiomer).

physchem = type: physicochemical; conditions: solid state, initial compound present
Method: As a mimic of the tablet formulation process, a concentrated solution of N-[1(R)-[(1,2-dihydro-1-methanesulfonylspiro[3H-indole-3,4'-piperdin]-1'-yl)carbonyl]-2-(phenylmethyloxy)ethyl]-2-amino-2-methylpropanamide methanesulfonate (118 mg) in 120 μL 25% aqueous ethanol (980 mg/ml) was evaporated at 40° C. to give a solid. The lack of crystallinity was confirmed by X-ray analysis.
After 12 weeks at 40° C., 100% of the initial compound was present; after 12 weeks at 60° C., 99.7% of the initial compound was present; after 12 weeks at 80° C., 97.8% of the initial compound was present.

[2] = Stability of the compound in standard pharmaceutical formulations; type: physicochemical
growth hormone = assay: Growth hormone secretagogue assay described by Smith, et al., Science, 260, 1640-1643 (1993); type: cell-based; conditions: assay of Smith et al., Science 1993
Description: Such a result is indicative of the activity of the formulation of the present invention as a growth hormone secretagogue.

[3] = Flow properties of bulk drug; type: physicochemical; conditions: as a bulk drug

hygroscopicity [1]: very hygroscopic
SMILES: CC(C)(N)C(=O)N[C@H](COCc1ccccc1)C(=O)N1CCC2(CC1)CN(S(C)(=O)=O)c1ccccc12 [Compound 16, N-[1(R)-[(1,2-Dihydro-1-methanesulfonylspiro[3H-indole-3,4'-piperdin]-1'-yl)carbonyl]-2-(phenylmethyloxy)ethyl]-2-amino-2-methylpropanamide mesylate]

remaining at 2016 h (physchem): 100%
SMILES: CC(C)(N)C(=O)N[C@H](COCc1ccccc1)C(=O)N1CCC2(CC1)CN(S(C)(=O)=O)c1ccccc12 [amorphous form, N-[1(R)-[(1,2-dihydro-1-methanesulfonylspiro[3H-indole-3,4'-piperdin]-1'-yl)carbonyl]-2-(phenylmethyloxy)ethyl]-2-amino-2-methylpropanamide methanesulfonate]

stability in standard pharmaceutical formulations [2]: relatively unstable
flow properties [3]: poor flow properties
SMILES: CC(C)(N)C(=O)N[C@H](COCc1ccccc1)C(=O)N1CCC2(CC1)CN(S(C)(=O)=O)c1ccccc12 [active ingredient, N-[1(R)-[(1,2-dihydro-1-methane-sulfonyl-spiro[3H-indole-3,4'-piperdin]-1'-yl)carbonyl)-2-(phenyl-methyl-oxy)ethyl]-2-amino-2-methyl-propanamide]
activity as a growth hormone secretagogue (growth hormone): had activity as a growth hormone secretagogue
